This assay deals with PI3Kδ (p110δ/p85α) (Homo sapiens (Human), UniProt O00329). The assay can be described thus: PI3Kδ scintillation proximity assay (Example A3). Type of assay: biochemical. The note with it: 20 μM ATP, 20 μM PIP2, 4 nM PI3Kδ; read-out: PI3Kδ SPA IC50. The procedure, abridged:
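Human PI3Kδ (p110δ/p85α, 4 nM) with 20 μM PIP2 and 20 μM ATP plus [γ-33P]ATP in 20 mM MOPS pH 6.7, 10 mM MgCl2, 5 mM DTT, 0.03% CHAPS, 0.5% DMSO, room temperature. Reaction stopped with EDTA/excess ATP; product captured on WGA SPA beads and counted. IC50 from percent control activity vs log inhibitor.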
For orientation: SPA uses beads or plates that emit light when radiolabelled molecules are held near them.

Bounds are passed on as bounds.

Chain of PI3Kδ (p110δ/p85α) (O00329 whole entry): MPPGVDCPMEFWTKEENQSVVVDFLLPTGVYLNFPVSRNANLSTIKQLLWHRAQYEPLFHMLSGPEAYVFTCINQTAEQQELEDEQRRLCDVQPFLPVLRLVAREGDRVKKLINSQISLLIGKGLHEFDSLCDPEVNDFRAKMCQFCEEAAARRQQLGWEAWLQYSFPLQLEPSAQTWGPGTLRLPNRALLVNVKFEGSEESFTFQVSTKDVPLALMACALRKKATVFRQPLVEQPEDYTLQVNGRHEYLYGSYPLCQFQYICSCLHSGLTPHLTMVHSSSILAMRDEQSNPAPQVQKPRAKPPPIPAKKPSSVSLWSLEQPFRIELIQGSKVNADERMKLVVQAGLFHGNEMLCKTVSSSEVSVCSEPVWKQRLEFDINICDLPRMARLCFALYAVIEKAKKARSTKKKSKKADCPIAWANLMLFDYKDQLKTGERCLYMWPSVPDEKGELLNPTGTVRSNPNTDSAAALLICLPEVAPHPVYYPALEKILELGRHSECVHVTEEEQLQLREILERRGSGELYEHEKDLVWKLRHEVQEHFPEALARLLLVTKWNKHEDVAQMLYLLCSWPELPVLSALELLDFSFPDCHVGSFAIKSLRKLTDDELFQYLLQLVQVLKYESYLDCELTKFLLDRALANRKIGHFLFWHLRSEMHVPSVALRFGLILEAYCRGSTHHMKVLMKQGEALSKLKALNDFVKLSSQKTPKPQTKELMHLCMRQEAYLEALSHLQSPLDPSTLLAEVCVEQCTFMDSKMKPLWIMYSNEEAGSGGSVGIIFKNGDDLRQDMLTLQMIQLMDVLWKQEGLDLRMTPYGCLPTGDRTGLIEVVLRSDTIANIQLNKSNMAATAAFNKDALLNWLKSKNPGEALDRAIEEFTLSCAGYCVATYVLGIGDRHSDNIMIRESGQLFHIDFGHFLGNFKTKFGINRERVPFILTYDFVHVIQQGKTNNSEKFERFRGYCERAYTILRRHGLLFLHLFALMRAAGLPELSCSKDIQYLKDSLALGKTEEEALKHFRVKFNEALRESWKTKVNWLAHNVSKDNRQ
Chain of PI3Kδ (p110δ/p85α) (P27986 whole entry partner): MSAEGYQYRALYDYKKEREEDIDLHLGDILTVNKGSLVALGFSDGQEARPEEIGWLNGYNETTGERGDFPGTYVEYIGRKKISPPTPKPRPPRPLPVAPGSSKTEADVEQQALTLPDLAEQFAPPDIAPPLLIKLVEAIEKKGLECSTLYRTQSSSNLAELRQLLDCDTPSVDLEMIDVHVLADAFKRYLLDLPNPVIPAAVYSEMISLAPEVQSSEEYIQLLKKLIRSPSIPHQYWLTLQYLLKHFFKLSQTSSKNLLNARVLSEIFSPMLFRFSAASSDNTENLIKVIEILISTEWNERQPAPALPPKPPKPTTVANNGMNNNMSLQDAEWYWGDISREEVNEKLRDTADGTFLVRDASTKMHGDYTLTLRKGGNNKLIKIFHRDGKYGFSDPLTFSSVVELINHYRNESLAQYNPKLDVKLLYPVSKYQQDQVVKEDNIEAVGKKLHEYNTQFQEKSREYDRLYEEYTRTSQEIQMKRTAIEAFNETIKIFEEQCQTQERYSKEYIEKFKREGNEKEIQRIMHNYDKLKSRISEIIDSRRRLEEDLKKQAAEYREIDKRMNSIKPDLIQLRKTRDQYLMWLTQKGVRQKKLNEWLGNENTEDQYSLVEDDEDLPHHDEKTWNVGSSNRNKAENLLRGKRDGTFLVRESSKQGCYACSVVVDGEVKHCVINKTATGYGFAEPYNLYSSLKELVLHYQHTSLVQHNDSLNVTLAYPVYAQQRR

Broadly, the IC50 is the midpoint of a concentration-inhibition curve. Regarding `CCOc1c(C(C)n2nc(C)c3c(N)ncnc32)cc(Cl)c(F)c1C1CN(C)C1` (racemic) [Example 145, 1-{1-[5-Chloro-2-ethoxy-4-fluoro-3-(1-methylazetidin-3-yl)phenyl]ethyl}-3-methyl-1H-pyrazolo[3,4-d]pyrimidin-4-amine], the IC50 is at most 0.01 µM.
Under `COc1c(C(C)n2nc(C)c3c(N)nccc32)cc(Cl)c(C)c1-c1ccc(C(=O)N(C)C)nc1` (racemic) [Example 41, 5-{3-[1-(4-Amino-3-methyl-1H-pyrazolo[4,3-c]pyridin-1-yl)ethyl]-5-chloro-2-methoxy-6-methylphenyl}-N,N-dimethylpyridine-2-carboxamide bis(trifluoroacetate)] stands 0.05 to 0.2 µM.
Under `COc1c(C(C)n2ccc(=O)c3c(N)ncnc32)cc(Cl)c(C)c1-c1ccc(C(=O)N(C)C)nc1` (single isomer, unassigned) [25 (2nd peak), 5-{3-[1-(4-Amino-5-oxopyrido[2,3-d]pyrimidin-8(5H)-yl)ethyl]-5-chloro-2-methoxy-6-methylphenyl}-N,N-dimethylpyridine-2-carboxamide] stands at most 0.01 µM; under `CCOc1c(C(C)n2nc(C)c3c(N)ncnc32)cc(Cl)c(C#N)c1C1CN(CC2CCOC2)C1` (single isomer, unassigned) [Example 230, 4-[1-(4-Amino-3-methyl-1H-pyrazolo[3,4-d]pyrimidin-1-yl)ethyl]-6-chloro-3-ethoxy-2-[1-(tetrahydrofuran-3-ylmethyl)azetidin-3-yl]benzonitrile], at most 0.01 µM; under `COc1c(C(C)n2ccc(=O)c3c(N)ncnc32)cc(Cl)c(C)c1-c1cncc(S(C)(=O)=O)c1` (racemic) [Example 26, 4-Amino-8-(1-{5-chloro-2-methoxy-4-methyl-3-[5-(methylsulfonyl)pyridin-3-yl]phenyl}ethyl)pyrido[2,3-d]pyrimidin-5(8H)-one bis(trifluoroacetate)], at most 0.01 µM.
The value for `COc1c(C(C)n2nc(C)c3c(N)ncnc32)cc(Cl)c(C)c1-c1cncc(C#N)c1` (single isomer, unassigned) [Example 170, 5-(3-(1-(4-amino-3-methyl-1H-pyrazolo[3,4-d]pyrimidin-1-yl)ethyl)-5-chloro-2-methoxy-6-methylphenyl)nicotinonitrile] was at most 0.01 µM; that for `CCOc1c(C(C)n2nc(C)c3c(N)ncnc32)cc(Cl)c(C#N)c1C1CN(C(=O)N(C)C)C1` (single isomer, unassigned) [Example 259, 3-{3-[1-(4-Amino-3-methyl-1H-pyrazolo[3,4-d]pyrimidin-1-yl)ethyl]-5-chloro-6-cyano-2-ethoxyphenyl}-N,N-dimethylazetidine-1-carboxamide] was at most 0.01 µM; that for `CCOc1c(C(C)n2nc(-c3cc[nH]n3)c3c(N)ncnc32)cc(Cl)c(C)c1-c1ccc(C(=O)N(C)C)nc1` (racemic) [Example 51, 5-(3-{1-[4-amino-3-(1H-pyrazol-3-yl)-1H-pyrazolo[3,4-d]pyrimidin-1-yl]ethyl}-5-chloro-2-ethoxy-6-methylphenyl)-N,N-dimethylpyridine-2-carboxamide bis(trifluoroacetate)] was at most 0.01 µM.
Turning to `COc1c(C(C)n2nc(C)c3c(N)ncnc32)cc(Cl)c(C)c1CC1CC1` (single isomer, unassigned) [Example 193, 1-{1-[5-Chloro-3-(cyclopropylmethyl)-2-methoxy-4-methylphenyl]ethyl}-3-methyl-1H-pyrazolo[3,4-d]pyrimidin-4-amine], the IC50 was in the range of 0.05 to 0.2 µM.
Under `CCOc1c(C(C)n2nc(C)c3c(N)ncnc32)cc(Cl)c(C#N)c1-c1ccnc(C(=O)N(C)C)c1` (single isomer, unassigned) [Example 334, 4-{3-[1-(4-amino-3-methyl-1H-pyrazolo[3,4-d]pyrimidin-1-yl)ethyl]-5-chloro-6-cyano-2-ethoxyphenyl}-N,N-dimethylpyridine-2-carboxamide] stands at most 0.01 µM.
For the molecule `CCN1CC(c2c(C#N)c(Cl)cc(C(C)n3nc(C)c4c(N)ncnc43)c2OC)C1` (single isomer, unassigned) [Example 263, 4-[1-(4-Amino-3-methyl-1H-pyrazolo[3,4-d]pyrimidin-1-yl)ethyl]-6-chloro-2-(1-ethylazetidin-3-yl)-3-methoxybenzonitrile], the IC50 is at most 0.01 µM.
Under `CCOc1c(C(C)n2nc(C)c3c(N)ncnc32)cc(Cl)c(C)c1-c1cnn(CC(=O)NC)c1` (single isomer, unassigned) [Example 204, 2-(4-(3-(1-(4-amino-3-methyl-1H-pyrazolo[3,4-d]pyrimidin-1-yl)ethyl)-5-chloro-2-ethoxy-6-methylphenyl)-1H-pyrazol-1-yl)-N-methylacetamide] stands at most 0.01 µM; under `CCOc1c(C(C)n2nc(-c3ccn(C)n3)c3c(N)ncnc32)cc(Cl)c(C)c1-c1ccc(C(=O)N(C)C)nc1` (stereo not shown) [Example 50, 5-(3-{1-[4-amino-3-(1-methyl-1H-pyrazol-3-yl)-1H-pyrazolo[3,4-d]pyrimidin-1-yl]ethyl}-5-chloro-2-ethoxy-6-methylphenyl)-N,N-dimethylpyridine-2-carboxamide bis(trifluoroacetate)], at most 0.01 µM; under `CCOc1c(C(C)n2nc(C)c3c(N)ncnc32)cc(Cl)c(C#N)c1C1CN(S(C)(=O)=O)C1` (stereo not shown) [Example 248, 4-[1-(4-Amino-3-methyl-1H-pyrazolo[3,4-d]pyrimidin-1-yl)ethyl]-6-chloro-3-ethoxy-2-[1-(methylsulfonyl)azetidin-3-yl]benzonitrile], at most 0.01 µM.
The value for `CCOc1c(C(C)n2nc(C)c3c(N)ncnc32)cc(Cl)c(C#N)c1C1CN(C(C)=O)C1` (single isomer, unassigned) [Example 242, 2-(1-Acetylazetidin-3-yl)-4-[1-(4-amino-3-methyl-1H-pyrazolo[3,4-d]pyrimidin-1-yl)ethyl]-6-chloro-3-ethoxybenzonitrile] was at most 0.01 µM; that for `COc1c(C(C)n2nc(C)c3c(N)ncnc32)cc(C#N)c(C)c1-c1ccnc(C(=O)N(C)CCO)c1` (racemic) [Example 40, 4-{3-[1-(4-amino-3-methyl-1H-pyrazolo[3,4-d]pyrimidin-1-yl)ethyl]-5-cyano-2-methoxy-6-methylphenyl}-N-(2-hydroxyethyl)-N-methylpyridine-2-carboxamide] was 0.01 to 0.05 µM; that for `CCOc1c(C(C)n2nc(CNC)c3c(N)ncnc32)cc(Cl)c(C)c1-c1ccc(C(=O)N(C)C)nc1` (racemic) [Example 84, 5-[3-(1-{4-Amino-3-[(methylamino)methyl]-1H-pyrazolo[3,4-d]pyrimidin-1-yl}ethyl)-5-chloro-2-ethoxy-6-methylphenyl]-N,N-dimethylpyridine-2-carboxamide tris(trifluoroacetate)] was 0.05 to 0.2 µM.
Under `CCOc1c(C(C)n2nc(-c3cn[nH]c3)c3c(N)ncnc32)cc(Cl)c(C)c1-c1ccc(C(=O)N(C)C)nc1` (racemic) [Example 48, 5-(3-{1-[4-amino-3-(1H-pyrazol-4-yl)-1H-pyrazolo[3,4-d]pyrimidin-1-yl]ethyl}-5-chloro-2-ethoxy-6-methylphenyl)-N,N-dimethylpyridine-2-carboxamide bis(trifluoroacetate)] stands at most 0.01 µM.
On to `CCS(=O)(=O)N1CC(c2c(C#N)c(Cl)cc(C(C)n3nc(C)c4c(N)ncnc43)c2OC)C1` (single isomer, unassigned) [Example 286, 4-[1-(4-Amino-3-methyl-1H-pyrazolo[3,4-d]pyrimidin-1-yl)ethyl]-6-chloro-2-[1-(ethylsulfonyl)azetidin-3-yl]-3-methoxybenzonitrile], for which the IC50 is at most 0.01 µM.
The value for `CCOc1c(C(C)n2nc(C)c3c(N)ncnc32)cc(Cl)c(C#N)c1C1CN(CCOC)C1` (stereo not shown) [Example 225, 4-[1-(4-Amino-3-methyl-1H-pyrazolo[3,4-d]pyrimidin-1-yl)ethyl]-6-chloro-3-ethoxy-2-[1-(2-methoxyethyl)azetidin-3-yl]benzonitrile] was at most 0.01 µM; that for `CCOc1c(C(C)n2nc(CC)c3c(N)ncnc32)cc(Cl)c(C)c1-c1ccc(C(=O)N(C)C)nc1` (racemic) [Example 81, 5-{3-[1-(4-Amino-3-ethyl-1H-pyrazolo[3,4-d]pyrimidin-1-yl)ethyl]-5-chloro-2-ethoxy-6-methylphenyl}-N,N-dimethylpyridine-2-carboxamide] was 0.05 to 0.2 µM; that for `COc1c(C(C)n2nc(C)c3c(N)ncnc32)cc(Cl)c(C)c1-c1cncc(C(=O)N2CC(C#N)C2)c1` (stereo not shown) [Example 177, 1-[(5-{3-[1-(4-amino-3-methyl-1H-pyrazolo[3,4-d]pyrimidin-1-yl)ethyl]-5-chloro-2-methoxy-6-methylphenyl}pyridin-3-yl)carbonyl]azetidine-3-carbonitrile] was at most 0.01 µM.
Under `COc1c(C(C)n2ccc(=O)c3c(N)ncnc32)cc(Cl)c(C)c1-c1cncnc1` (racemic) [Example 29, 4-Amino-8-[1-(5-chloro-2-methoxy-4-methyl-3-pyrimidin-5-ylphenyl)ethyl]pyrido[2,3-d]pyrimidin-5(8H)-one bis(trifluoroacetate)] stands at most 0.01 µM; under `CCOc1c(C(C)n2nc(C)c3c(N)ncnc32)cc(Cl)c(C)c1C1CNC(=O)C1` (single isomer, unassigned) [Example 310, 4-{3-[1-(4-amino-3-methyl-1H-pyrazolo[3,4-d]pyrimidin-1-yl)ethyl]-5-chloro-2-ethoxy-6-methylphenyl}pyrrolidin-2-one], at most 0.01 µM; under `CCOc1c(C(C)n2nc(C)c3c(N)ncnc32)cc(Cl)c(C#N)c1C1CNC(=O)C1` (single isomer, unassigned) [Example 350, 4-[1-(4-amino-3-methyl-1H-pyrazolo[3,4-d]pyrimidin-1-yl)ethyl]-6-chloro-3-ethoxy-2-(5-oxopyrrolidin-3-yl)benzonitrile], above 0.5 µM.

Values taken from US9707233B2, “Heterocyclylamines as PI3K inhibitors” (Incyte Corporation, priority 2011, dated 2017).
